According to patent US12161750B2, “Antibiotic formulations for lower back pain” (Persica Pharmaceuticals Ltd., priority 2016, dated 2024):
Converted amounts (≈) assume the structure as drawn.

Experiments:
[1] = In vitro diffusion and release from poloxamer gel embedded in an agar disc (HPLC); assay type: physicochemical; conditions: 100 microliters of poloxamer formulation embedded in an agar disc
Experimental: 100 microliters of poloxamer formulation were embedded in an agar disc. The release of loaded compound into media around the agar structure is measured. The assays mimic a disc containing a poloxamer injection. The mass of antibiotic released over 72 h was determined using high-performance liquid chromatography (HPLC).

[2] = system: Gram-positive bacteria; conditions: cited from earlier work
[3] = system: S. aureus; assay: Sheep model of S. aureus intradiscal infection, therapeutic dosing; assay type: in vivo; conditions: for discs sterilized: one hour post infection
Excerpt: A sheep model of S. aureus intradiscal infection has been developed to test the in vivo efficacy of antibiotic formulations. Male Charollais or Suffolk cross sheep, approximately 35-40 kg+ at the start of the study were housed according to Home Office guidelines under the Animals (Scientific Procedures) Act 1986 and acclimatised for at least 7 days with straw bedding and access to water. They were fed a Sheep concentrate diet without added antibiotics with additional forage (hay/straw) provided.
The bacterial inoculum (ATCC 29213) is prepared from frozen glycerol/phosphate-buffered saline stock at 2.5×10^6 CFU/ml by dilution to 2×10^4 CFU/ml:
In a therapeutic model, each sheep is anesthetised and given four 0.05 ml (target volume) intradiscal Injections at L1/L2, L2/L3, L3/L4 and L4/5 of S. aureus inoculum (1×10^3 cells/disc), one injection per disc.
(§1) Approximately 1 hour, or at another selected time, after the first injection, each sheep is given a second injection of the test formulation or control formulation. Each disc that was previously successfully injected with bacteria is given a 0.1 ml (target volume) intradiscal injection. As part of the anaesthesia the animal is given analgesics (intra-muscular) in the form of meloxicam at the recommended dosage. This analgesic may be repeated if considered necessary by the named veterinary surgeon. In a prophylactic model, the order of administrations is reversed such that the first injection is a formulation of antibiotic or control and the second injection contains the bacterial inoculum. The time between administration of the antibiotic and bacteria may be hours, days, weeks or months.
A single 20G 3.5″ spinal needle is positioned directly into the edge of the nucleus pulposus of each disc. Following confirmation of positioning of the needles a second 25G 4.69″ needle primed with the dose solution is inserted into the first needle and the tip placed into the middle of the nucleus pulposus. Following confirmation of positioning of the second needles each disc is injected with the bacteria. The inner needles will then be removed. Just prior to the 1 hour post-dose bacteria time-point a new 25G 4.69″ needle, primed with the dose solution, is inserted into the 20G 3.5″ and positioned into the middle of the nucleus pulposus. The second treatment is dose given via this needle, 1 hour post the first dose.
Bacterial infection: A single 20G 3.5″ spinal needle is positioned directly into the edge of the nucleus pulposus of each disc. Following confirmation of positioning of the needles a second 25G 4.69″ needle primed with the dose solution is inserted into the first needle and the tip placed into the middle of the nucleus pulposus. Following confirmation of positioning of the second needles each disc is injected with the bacteria. The needles will then be removed. The animals are repositioned to access the other side of the spine.
Injection of formulation: A second 20G 3.5″ spinal needle is positioned directly into the edge of the nucleus pulposus on the opposite side to the first injection of each disc. Just prior to time-point for administration a new 25G 4.69″ needle, primed with the dose solution, is inserted into the 20G 3.5″ and positioned into the middle of the nucleus pulposus. The second treatment is dose given via this needle.
At set time-points post-dose the sheep is killed. The injected vertebrae discs are dissected out and the nucleus pulposus from each disc is removed. In addition, an extra untreated disc is sampled to provide control tissue. The disc is removed after all of the treated discs for the particular animal with care to ensure no contamination between control and treated samples.
The sheep intradiscal infection model of Example 1 was used to evaluate the in vivo efficacy of therapeutically dosed vancomycin.

[4] = system: S. aureus; assay: Sheep model of S. aureus intradiscal infection, prophylactic dosing; assay type: in vivo; conditions: Example 3; 5 mg/disc on day 0, discreet infection with 10^3 S. aureus per disc on day 3, harvest 24 h after infection
Experimental: as §1
The order of the injections may be reversed such that the first injection is a formulation of antibiotic and the second injection contains the bacterial inoculum. The time between administration of the antibiotic and bacteria may be hours, days, weeks or months. The second injection may be co-localised or discreet e.g. injected on the same side of the disc as the first injection or injected on the other side of the disc to the first injection respectively.
Discs were treated with vancomycin (5 mg/disc) on day 0 and on day 3 were discreetly infected with 10^3 S. aureus per disc. […]

[5] = system: MRSA (methicillin resistant Staphylococcus aureus); conditions: formulated with poloxamer 407, sustained local delivery to the infected ear; cited from earlier work

Row | Structure (SMILES) | input antibiotic accounted for (released) after 72 h [1] [%] | MIC [2] [mg/L] | discs sterilized ([3]; Example 2, discreet dosing, 5 mg vancomycin/disc) | discs sterilized ([3]; Example 2, discreet dosing, 20 mg vancomycin/disc) | reduction in average bacterial burden ([3]; Example 2, discrete dosing groups) [log10] | discs sterilized ([3]; Example 2, vancomycin in Omnipaque with 0.5% hyaluronic acid, co-localised dosing, within 24 h) | sterile discs ([3]; Example 9, discrete dosing) | reduction in average disc bacterial burden ([3]; Example 9, discrete dosing from the other side of the disc) | average reduction in bacterial burden [4] [log10] | effect on MRSA otitis media [5]
1 | CC(=O)NC[C@H]1CN(c2ccc(N3CCOCC3)c(F)c2)C(=O)O1 [Linezolid] | 57 | 4 (≈ 11.9 µM) |  |  |  |  |  |  |  | 
2 | CN[C@H](CC(C)C)C(=O)N[C@H]1C(=O)N[C@@H](CC(N)=O)C(=O)N[C@H]2C(=O)N[C@H]3C(=O)N[C@H](C(=O)N[C@H](C(=O)O)c4cc(O)cc(O)c4-c4cc3ccc4O)[C@H](O)c3ccc(c(Cl)c3)Oc3cc2cc(c3O[C@@H]2O[C@H](CO)[C@@H](O)[C@H](O)[C@H]2O[C@H]2C[C@](C)(N)[C@H](O)[C@H](C)O2)Oc2ccc(cc2Cl)[C@H]1O [Vancomycin] | 92 |  | 5 of 7 | 3 of 7 | ≤ 3 | all the discs were effectively sterilized | 3 of 8 | did not significantly reduce average bacterial disc burden | > 3 | completely cures the otitis media caused by MRSA infection
